# Experimental data: patent US20240132431A1, “METHOD FOR ALKYLATING ACIDIC FUNCTIONAL GROUP” (Chugai Seiyaku Kabushiki Kaisha, priority 2021, published 2024)
# Target: T1, Bcl-2 protein (Recombinant Human Bcl-2 Protein) (Homo sapiens, UniProt P10415)
# T1 construct: purchased Novus NBP2-34889
# Assay: Binding evaluation of mixture library compounds to Bcl-2 using AS-MS (affinity selection mass spectrometry)
# Settings: for ASMS ratio (%) n = 1: replicate n = 1; for ASMS ratio (%) n = 1 / ASMS ratio (%) n = 2: ASMS Ratio(%)=(A−C)/B×100; for ASMS ratio (%) n = 2: replicate n = 2
# Method in brief: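 Bcl-2 binding is scored from LC/MS signal retained with protein through gel-filtration spin columns, normalised to unfiltered and protein-free controls. Incubation: 20 μM protein, […] per compound, 1 h, 23° C.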
# [1] = AS-MS, mixture of 1200 compounds, Bcl-2
# [2] = AS-MS on the mixture of 1200 library compounds
# T1 sequence (P10415 whole entry): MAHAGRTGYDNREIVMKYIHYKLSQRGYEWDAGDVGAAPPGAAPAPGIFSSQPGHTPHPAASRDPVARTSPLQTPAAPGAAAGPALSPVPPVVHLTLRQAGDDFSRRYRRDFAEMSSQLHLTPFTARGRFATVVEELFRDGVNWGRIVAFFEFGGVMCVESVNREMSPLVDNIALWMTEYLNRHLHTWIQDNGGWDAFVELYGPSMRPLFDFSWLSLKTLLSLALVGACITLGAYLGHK
Compound,"ASMS ratio (%) n = 1 (AS-MS, mixture library, Bcl-2) [%]","ASMS ratio (%) n = 2 (AS-MS, mixture library, Bcl-2) [%]",ASMS ratio (%) n = 1 [1] [%],ASMS ratio (%) n = 2 [1] [%],further results
"CCOc1cncc(-c2ccc(C(=O)N3CCN(c4ccc(C(=O)NS(=O)(=O)CC56CC7CC(CC(C7)C5)C6)nn4)CC3)cc2F)c1 [B2A006-01, N-(1-Adamantylmethylsulfonyl)-6-[4-[4-(5-ethoxypyridin-3-yl)-3-fluorobenzoyl]piperazin-1-yl]pyridazine-3-carboxamide]",0.0,0.0,–,–,–
"CCOc1cncc(-c2csc(CN3CCN(c4ccc(C(=O)NS(=O)(=O)CC56CC7CC(CC(C7)C5)C6)cc4)CC3)c2)c1 [B2A068-01, N-(1-Adamantylmethylsulfonyl)-4-[4-[[4-(5-ethoxypyridin-3-yl)thiophen-2-yl]methyl]piperazin-1-yl]benzamide]",0.0,0.0,–,–,–
"CCOc1cccc(-c2ccc(CN3CCN(c4ccc(C(=O)N(CC)CC)nn4)CC3)c3ccccc23)c1 [B4J091-01, 6-[4-[[4-(3-Ethoxyphenyl)naphthalen-1-yl]methyl]piperazin-1-yl]-N,N-diethylpyridazine-3-carboxamide]",3.7,1.5,–,–,–
6-[4-[[4-(5-Ethoxypyridin-3-yl)naphthalen-1-yl]methyl]piperazin-1-yl]-N-propylpyridazine-3-carboxamide [B1M047-01],–,–,1.1,0.3,–
"CCOc1cncc(-c2cc(CN3CCN(c4ccc(C(=O)NS(=O)(=O)c5ccc(NCCSc6ccccc6)c(C(F)(F)F)c5)nn4)CC3)cc(OCC)c2)c1 [B2R082-01, 6-[4-[[3-Ethoxy-5-(5-ethoxypyridin-3-yl)phenyl]methyl]piperazin-1-yl]-N-[4-(2-phenylsulfanylethylamino)-3-(trifluoromethyl)phenyl]sulfonylpyridazine-3-carboxamide]",–,–,–,–,ASMS ratio (%) (n = 1): 0.0%; ASMS ratio (%) (n = 2): 0.0%
"CCOc1cccc(-c2ccc(CN3CCN(c4ccc(C(=O)NCC(F)(F)F)cc4)CC3)cc2F)c1 [B1K051-01, 4-[4-[[4-(3-Ethoxyphenyl)-3-fluorophenyl]methyl]piperazin-1-yl]-N-(2,2,2-trifluoroethyl)benzamide]",–,–,2.8,2.0,–
"CCOc1cccc(-c2ccccc2CCC(=O)N2CCN(c3ccc(C(=O)NCC45CC6CC(CC(C6)C4)C5)cc3)CC2)c1 [B1A033-01, N-(1-Adamantylmethyl)-4-[4-[3-[2-(3-ethoxyphenyl)phenyl]propanoyl]piperazin-1-yl]benzamide]",–,–,3.3,−13.3,–
"CCOc1cncc(C#Cc2ccccc2CN2CCN(c3ccc(C(=O)Nc4ccc(OC)cc4)nn3)CC2)c1 [B1O096-01, 6-[4-[[2-[2-(5-Ethoxypyridin-3-yl)ethynyl]phenyl]methyl]piperazin-1-yl]-N-(4-methoxyphenyl)pyridazine-3-carboxamide]",–,–,–,–,ASMS ratio (%) n = 1 [2]: 0.0%; ASMS ratio (%) n = 2 [2]: 3.5%
"CCOc1cncc(-c2ccc(C(=O)N3CCN(c4ccc(C(=O)Nc5ccc(OC)cc5)nn4)CC3)cc2C)c1 [B1O004-01, 6-[4-[4-(5-Ethoxypyridin-3-yl)-3-methylbenzoyl]piperazin-1-yl]-N-(4-methoxyphenyl)pyridazine-3-carboxamide]",–,–,–,–,ASMS ratio (%) n = 1 [2]: 2.8%; ASMS ratio (%) n = 2 [2]: 0.4%
"CCOc1cncc(-c2cc(CN3CCN(c4ccc(C(=O)NS(=O)(=O)CC56CC7CC(CC(C7)C5)C6)cc4)CC3)cc(C(F)(F)F)c2)c1 [B2A062-01, N-(1-Adamantylmethylsulfonyl)-4-[4-[[3-(5-ethoxypyridin-3-yl)-5-(trifluoromethyl)phenyl]methyl]piperazin-1-yl]benzamide]",−5.2,3.6,–,–,–
CCCNC(=O)c1ccc(N2CCN(Cc3ccccc3-c3cncc(OCC)c3)CC2)nn1 [B1M043-01],–,–,2.2,−3.1,–
CCOc1cccc(-c2ccc(CN3CCN(c4ccc(C(=O)NS(C)(=O)=O)cc4)CC3)c(OC)c2)c1 [B2I053-01],–,–,–,–,ASMS ratio (%) (n = 1): 0.0%; ASMS ratio (%) (n = 2): 0.0%
"CCOc1cccc(-c2ccc(CN3CCN(c4ccc(C(=O)NCC(F)(F)F)nn4)CC3)c(OC)c2)c1 [B1K079-01, 6-[4-[[4-(3-Ethoxyphenyl)-2-methoxyphenyl]methyl]piperazin-1-yl]-N-(2,2,2-trifluoroethyl)pyridazine-3-carboxamide]",–,–,2.2,−1.3,–
"CCOc1cncc(-c2ccc(CN3CCN(c4ccc(C(=O)NS(=O)(=O)CC56CC7CC(CC(C7)C5)C6)cc4)CC3)c(CC)c2)c1 [B2A050-01, N-(1-Adamantylmethylsulfonyl)-4-[4-[[4-(5-ethoxypyridin-3-yl)-2-ethylphenyl]methyl]piperazin-1-yl]benzamide]",−1.1,1.6,–,–,–
"CCOc1cncc(-c2cc(CN3CCN(c4ccc(C(=O)NCC56CC7CC(CC(C7)C5)C6)cc4)CC3)cc(C(F)(F)F)c2)c1 [B1A062-01, N-(1-Adamantylmethyl)-4-[4-[[3-(5-ethoxypyridin-3-yl)-5-(trifluoromethyl)phenyl]methyl]piperazin-1-yl]benzamide]",–,–,−0.3,−9.7,–
"CCOc1cccc(-c2csc(C(=O)N3CCN(c4ccc(C(=O)Nc5ccc(OC)cc5)cc4)CC3)c2)c1 [B1O023-01, 4-[4-[4-(3-Ethoxyphenyl)thiophene-2-carbonyl]piperazin-1-yl]-N-(4-methoxyphenyl)benzamide]",–,–,–,–,ASMS ratio (%) n = 1 [2]: 12.4%; ASMS ratio (%) n = 2 [2]: −0.3%
"CCOc1cccc(-c2ccc(CN3CCN(c4ccc(C(=O)NS(C)(=O)=O)nn4)CC3)cc2F)c1 [B2I077-01, 6-[4-[[4-(3-Ethoxyphenyl)-3-fluorophenyl]methyl]piperazin-1-yl]-N-methylsulfonylpyridazine-3-carboxamide]",–,–,–,–,ASMS ratio (%) (n = 1): 0.0%; ASMS ratio (%) (n = 2): 0.0%
"CCOc1cncc(-c2ccc(C(=O)N3CCN(c4ccc(C(=O)NS(=O)(=O)c5ccc(NCCSc6ccccc6)c([N+](=O)[O-])c5)nn4)CC3)cc2F)c1 [B2Q006-01, 6-[4-[4-(5-Ethoxypyridin-3-yl)-3-fluorobenzoyl]piperazin-1-yl]-N-[3-nitro-4-(2-phenylsulfanylethylamino)phenyl]sulfonylpyridazine-3-carboxamide]",9.5,2.2,–,–,–
"CCOc1cccc(-c2cc(C(=O)N3CCN(c4ccc(C(=O)NS(=O)(=O)c5ccc(NCCSc6ccccc6)c([N+](=O)[O-])c5)nn4)CC3)cc(C(C)(C)C)c2)c1 [B2Q015-01, 6-[4-[3-tert-Butyl-5-(3-ethoxyphenyl)benzoyl]piperazin-1-yl]-N-[3-nitro-4-(2-phenylsulfanylethylamino)phenyl]sulfonylpyridazine-3-carboxamide]",17.1,13.2,–,–,–
